Assay results: ChEMBL document CHEMBL4400546, “A Cinchona Alkaloid Antibiotic That Appears To Target ATP Synthase in Streptococcus pneumoniae” (J Med Chem, 2019)

Key:
[1] = tested on: Streptococcus pneumoniae; experiment: Antibacterial activity against Streptococcus pneumoniae D39 after 20 hrs by CLSI-based microdilution method; assay type: functional; details: D39, 20 h
[2] = Cytotoxicity against human HepG2 cells assessed as reduction in cell viability after 48 hrs by Alamar Blue assay; assay type: cell-based

SMILES	MIC [1]	CC50 at 48 h [2] [µM]
CC=CC1C[N@]2CC[C@H]1C[C@H]2[C@H](O)c1ccnc2ccc(OC)cc12 (stereo partly specified)	12 µM	> 100
CC=C1C[N@]2CC[C@H]1C[C@H]2[C@H](O)c1ccnc2ccc(OC)cc12	12 µM	> 100
CCCCOc1ccc2nccc([C@@H](O)[C@@H]3C[C@@H]4CC[N@@]3C[C@@H]4CC)c2c1	22 µM	41
CC[C@H]1C[N@]2CC[C@H]1C[C@H]2[C@H](O)c1ccnc2ccc(OCC3CC3)cc12	22 µM	87
CON=C1C[N@]2CC[C@H]1C[C@H]2[C@H](O)c1ccnc2ccc(OC)cc12	375 to 750 µM	> 100
COc1ccc2nccc([C@@H](O)[C@@H]3C[C@@H]4CC[N@@]3CC4=NOCC(F)(F)F)c2c1	> 313 µM	> 100
C#CCON=C1C[N@]2CC[C@H]1C[C@H]2[C@H](O)c1ccnc2ccc(OC)cc12	175 µM	> 100
CC[C@H]1C[N@]2CC[C@H]1C[C@H]2[C@H](O)c1ccnc2ccc(OC(C)C)cc12	11 µM	86
COc1ccc2nccc([C@@H](O)[C@@H]3C[C@@H]4CC[N@@]3C/C4=N/O)c2c1	> 391 µM	> 100
CCOC(=O)CCCON=C1C[N@]2CC[C@H]1C[C@H]2[C@H](O)c1ccnc2ccc(OC)cc12	299 µM	> 100
C=CCOc1ccc2nccc([C@@H](O)[C@@H]3C[C@@H]4CC[N@@]3CC4=CC)c2c1	4 µM	54
C=CCOc1ccc2nccc([C@@H](O)[C@@H]3C[C@@H]4CC[N@@]3C[C@@H]4CC)c2c1	11 to 22 µM	78
COC(=O)CCCON=C1C[N@]2CC[C@H]1C[C@H]2[C@H](O)c1ccnc2ccc(OC)cc12	299 µM	> 100
CC=C1C[N@]2CC[C@H]1C[C@H]2[C@H](O)c1ccnc2ccc(OC3CCCC3)cc12	5 µM	48
CC[C@H]1C[N@]2CC[C@H]1C[C@H]2[C@H](O)c1ccnc2ccc(OC3CCCC3)cc12	5 µM	> 100
CC[C@H]1C[N@]2CC[C@H]1C[C@H]2[C@H](O)c1ccnc2ccc(OCC(F)(F)F)cc12	10 µM	72
CC=C1C[N@]2CC[C@H]1C[C@@H]2[C@H](F)c1ccnc2ccc(OC)cc12	392 µM	> 100
CC[C@H]1C[N@]2CC[C@H]1C[C@H]2[C@H](O)c1ccnc2ccc(OC3CCC3)cc12	5 µM	51
C=CCON=C1C[N@]2CC[C@H]1C[C@H]2[C@H](O)c1ccnc2ccc(OC)cc12	174 µM	51
CC=C1C[N@]2CC[C@H]1C[C@@H]2[C@@H](O)c1ccnc2ccc(OC)cc12	> 395 µM	> 100
CC=C1C[N@]2CC[C@H]1C[C@H]2[C@H](O)c1ccnc2ccc(OCc3ccccc3)cc12	40 µM	47
COc1ccc2nccc([C@@H](O)[C@@H]3C[C@@H]4CC[N@@]3C/C4=N/OC(C)C)c2c1	43 to 86 µM	> 100
CC[C@H]1C[N@]2CC[C@H]1C[C@H]2[C@H](O)c1ccnc2ccc(OCc3ccccc3)cc12	16 to 32 µg/mL	76

SMILES	MIC [1]	CC50 at 48 h [2] [µM]
CC[C@H]1C[N@]2CC[C@H]1C[C@@H]2[C@H](F)c1ccnc2ccc(OC)cc12	> 390 µM	> 100
CC=C1C[N@]2CC[C@H]1C[C@H]2[C@H](O)c1ccnc2ccc(OC(C)CO)cc12 (mixture of isomers)	5 µM	> 100
CC=C1C[N@]2CC[C@H]1C[C@H]2[C@H](O)c1ccnc2ccc(OCCC)cc12	3 to 6 µM	51
CCON=C1C[N@]2CC[C@H]1C[C@H]2[C@H](O)c1ccnc2ccc(OC)cc12	360 µM	> 100
COc1ccc2nccc([C@@H](O)[C@@H]3C[C@@H]4CC[N@@]3C/C4=N/OCC3CC3)c2c1	42 to 84 µM	> 100
CC=C1C[N@]2CC[C@H]1C[C@H]2[C@H](O)c1ccnc2ccc(OC(C)C)cc12	1 µM	54
CC=C1C[N@]2CC[C@H]1C[C@H]2[C@H](O)c1ccnc2ccc(OCC)cc12	1 µM	> 100
CC[C@H]1CN2CC[C@H]1C[C@H]2[C@H](O)c1ccnc2ccc(OC)cc12 [HYDROQUININE]	98 µM	> 100
CC=C1C[N@]2CC[C@H]1C[C@H]2[C@H](O)c1ccnc2ccc(OCC(F)(F)F)cc12	5 µM	> 100
COc1ccc2nccc([C@@H](O)[C@@H]3C[C@@H]4CC[N@@]3C[C@@H]4[C@H](O)CO)c2c1	> 357 µM	> 100
CC=C1C[N@]2CC[C@H]1C[C@H]2[C@H](O)c1ccnc2ccc(OCCCC)cc12	11 µM	27
CC=C1C[N@]2CC[C@H]1C[C@H]2[C@H](O)c1ccnc2ccc(OCC3CC3)cc12	5 µM	> 100
CC=C1C[N@]2CC[C@H]1C[C@H]2[C@@H](F)c1ccnc2ccc(OC)cc12	> 392 µM	> 100
CCCCON=C1C[N@]2CC[C@H]1C[C@H]2[C@H](O)c1ccnc2ccc(OC)cc12	21 to 42 µM	> 100
C=C[C@H]1CN2CC[C@@H]1C[C@H](F)[C@H]2c1ccnc2ccc(OC)cc12	392 µM	> 100
CCCO/N=C1/C[N@]2CC[C@H]1C[C@H]2[C@H](O)c1ccnc2ccc(OC)cc12	86 µM	> 100
COc1ccc2nccc([C@@H](O)[C@@H]3C[C@@H]4CC[N@@]3CC4=O)c2c1	> 410 µM	> 100
COc1ccc2nccc([C@@H](O)[C@@H]3C[C@@H]4CC[N@@]3CC4=NOC3CCC3)c2c1	84 µM	> 100
COc1ccc2nccc([C@@H](O)[C@@H]3C[C@@H]4CC[N@@]3CC4=NOCc3ccccc3)c2c1	77 µM	> 100
CCCOc1ccc2nccc([C@@H](O)[C@@H]3C[C@@H]4CC[N@@]3C[C@@H]4CC)c2c1	11 µM	57
COc1ccc2nccc([C@@H](O)[C@@H]3C[C@@H]4CC[N@@]3C/C4=N/OC3CCCC3)c2c1	40 to 81 µM	> 100
C=C[C@H]1C[N@@]2CC[C@H]1C[C@H]2[C@H](O)c1ccnc2ccc(OC)cc12 [QUININE]		> 100
CC[C@H]1CN2CC[C@H]1C[C@H]2[C@H](O)c1ccnc2ccc(O)cc12	204 µM	> 100
